Laboratory results as given in ChEMBL document CHEMBL3784936, “Classification of matching molecular series on the basis of SAR phenotypes and structural relationships” (Medchemcomm, 2016).
pKi: −log10 of the molar value.

Tests used:
Oxytocin receptor = biological target: T1, Oxytocin receptor (Homo sapiens, UniProt P30559); test: Inhibition of oxytocin receptor (unknown origin)
T1 sequence (P30559 whole entry): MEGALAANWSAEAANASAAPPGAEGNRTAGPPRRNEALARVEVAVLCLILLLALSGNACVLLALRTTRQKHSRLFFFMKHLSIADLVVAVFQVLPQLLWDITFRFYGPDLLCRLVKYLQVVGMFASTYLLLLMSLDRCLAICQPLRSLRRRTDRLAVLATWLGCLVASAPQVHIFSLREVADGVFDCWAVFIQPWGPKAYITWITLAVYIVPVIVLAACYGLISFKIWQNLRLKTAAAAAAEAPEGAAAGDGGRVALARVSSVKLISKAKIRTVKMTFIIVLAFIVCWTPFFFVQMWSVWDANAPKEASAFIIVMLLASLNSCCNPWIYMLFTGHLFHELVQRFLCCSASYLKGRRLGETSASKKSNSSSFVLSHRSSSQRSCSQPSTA

Adenosine receptor A3 = biological target: T2, Adenosine receptor A3 (Homo sapiens, UniProt P0DMS8); test: Inhibition of adenosine A3 receptor (unknown origin)
T2 sequence (P0DMS8 whole entry): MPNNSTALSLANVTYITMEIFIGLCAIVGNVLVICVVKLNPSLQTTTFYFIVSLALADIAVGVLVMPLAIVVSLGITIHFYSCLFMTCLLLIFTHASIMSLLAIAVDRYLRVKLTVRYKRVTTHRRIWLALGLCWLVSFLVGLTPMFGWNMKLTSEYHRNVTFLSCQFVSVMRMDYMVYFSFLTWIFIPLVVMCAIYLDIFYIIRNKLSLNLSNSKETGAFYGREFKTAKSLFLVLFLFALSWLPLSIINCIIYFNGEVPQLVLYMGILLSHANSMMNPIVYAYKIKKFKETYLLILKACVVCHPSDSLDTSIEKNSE

pKi (Oxytocin receptor)	Structure (SMILES)	pKi (Adenosine receptor A3)
7.75	CCCCOc1ccc(S(=O)(=O)N(CC(=O)N/N=C2\C(=O)Nc3ccccc32)c2ccc(Cl)cc2)cc1	
	Nc1ncnc2c1ncn2[C@@H]1O[C@H](C(=O)NC2CC2)[C@@H](O)[C@H]1O	6.75
